Results from ChEMBL document CHEMBL1138996, “Biological evaluation of isothiazoloquinolones containing aromatic heterocycles at the 7-position: In vitro activity of a series of potent antibacterial agents that are effective against methicillin-resistant Staphylococcus aureus” (Bioorg Med Chem Lett, 2006).
≈ marks a conversion by molar mass, not a printed value.

Tests used:
Escherichia coli = test: Antibacterial activity against Escherichia coli ATCC 25922; assay type: functional
Staphylococcus aureus [1] = test: Antibacterial activity against Staphylococcus aureus ATCC 29213; assay type: functional
Staphylococcus aureus [2] = test: Antibacterial activity against methicillin-resistant Staphylococcus aureus ATCC 700699; assay type: functional
[3] = target: DNA topoisomerase 4 subunit A (Staphylococcus aureus, UniProt P0C1U9); test: Inhibitory activity against Staphylococcus aureus ATCC 29213 wild type Topo 4
DNA topoisomerase 4 subunit A, sequence (P0C1U9 whole entry): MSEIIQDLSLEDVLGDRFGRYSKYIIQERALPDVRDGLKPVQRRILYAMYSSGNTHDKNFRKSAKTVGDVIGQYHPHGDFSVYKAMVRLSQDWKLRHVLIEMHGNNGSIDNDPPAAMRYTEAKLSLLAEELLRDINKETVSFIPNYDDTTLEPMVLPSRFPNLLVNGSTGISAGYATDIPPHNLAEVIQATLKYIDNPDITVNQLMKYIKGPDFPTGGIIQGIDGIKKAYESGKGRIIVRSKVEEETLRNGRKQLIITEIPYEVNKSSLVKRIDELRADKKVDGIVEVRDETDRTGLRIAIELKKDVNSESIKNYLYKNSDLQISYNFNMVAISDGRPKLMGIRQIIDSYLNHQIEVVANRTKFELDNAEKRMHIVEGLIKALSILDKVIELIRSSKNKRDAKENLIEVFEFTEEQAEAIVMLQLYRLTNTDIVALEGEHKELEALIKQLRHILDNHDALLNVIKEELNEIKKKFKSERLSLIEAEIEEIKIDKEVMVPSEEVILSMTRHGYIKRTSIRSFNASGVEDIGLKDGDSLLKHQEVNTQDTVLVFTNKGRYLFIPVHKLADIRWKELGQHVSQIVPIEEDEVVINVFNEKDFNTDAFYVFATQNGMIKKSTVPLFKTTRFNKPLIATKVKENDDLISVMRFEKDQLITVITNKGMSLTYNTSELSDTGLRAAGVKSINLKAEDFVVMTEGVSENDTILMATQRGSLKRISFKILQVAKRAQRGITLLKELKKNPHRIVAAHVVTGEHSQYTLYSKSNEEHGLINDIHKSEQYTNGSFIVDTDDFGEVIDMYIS

HEp-2 = test: Cytotoxicity against Hep2 cell line; assay type: functional; conditions: Homo sapiens
Enterococcus faecium = test: Antibacterial activity against Enterococcus faecium ATCC 49032; assay type: functional
Enterococcus faecalis = test: Antibacterial activity against Enterococcus faecalis ATCC 29212; assay type: functional
Streptococcus pyogenes = test: Antibacterial activity against Streptococcus pyogenes ATCC 19615; assay type: functional
Streptococcus pneumoniae = test: Antibacterial activity against Streptococcus pneumoniae ATCC 49619; assay type: functional
Haemophilus influenzae = test: Antibacterial activity against Haemophilus influenzae type b ACH-0056; assay type: functional
Moraxella catarrhalis = test: Antibacterial activity against Moraxella catarrhalis ATCC 8176; assay type: functional
[4] = system: Stenotrophomonas maltophilia; test: Antibacterial activity against Stenotrophomonas maltophilia ATCC 13637; assay type: functional
Salmonella typhimurium = test: Antibacterial activity against Salmonella Typhimurium ATCC 14028; assay type: functional, Salmonella enterica subsp. enterica serovar Typhimurium; conditions: Salmonella enterica
Klebsiella pneumoniae = test: Antibacterial activity against Klebsiella pneumoniae ATCC 13883; assay type: functional
Pseudomonas aeruginosa = test: Antibacterial activity against Pseudomonas aeruginosa ATCC 27853; assay type: functional

| Structure (SMILES) | MIC (Escherichia coli) [µg/mL] | MIC (Staphylococcus aureus [1]) [µg/mL] | MIC (Staphylococcus aureus [2]) [µg/mL] | IC50 [3] [µM] | CC50 (HEp-2) [µM] | MIC (Enterococcus faecium) [µg/mL] | MIC (Enterococcus faecalis) [µg/mL] | MIC (Streptococcus pyogenes) [µg/mL] | MIC (Streptococcus pneumoniae) [µg/mL] | MIC (Haemophilus influenzae) [µg/mL] | MIC (Moraxella catarrhalis) [µg/mL] | MIC [4] [µg/mL] | MIC (Salmonella typhimurium) [µg/mL] | MIC (Klebsiella pneumoniae) [µg/mL] | MIC (Pseudomonas aeruginosa) [µg/mL] |
| --- | --- | --- | --- | --- | --- | --- | --- | --- | --- | --- | --- | --- | --- | --- | --- |
| O=c1[nH]sc2c1c(=O)c1cc(F)c(-c3cnccn3)cc1n2C1CC1 | 1 (≈ 2.82 µM) | 0.12 (≈ 0.339 µM) | > 64 | 64 | > 91 | – | – | – | – | – | – | – | – | – | – |
| O=c1[nH]sc2c1c(=O)c1cc(F)c(-c3ccc4cnccc4c3)cc1n2C1CC1 | 0.13 (≈ 0.322 µM) | 0.002 (≈ 0.00496 µM) | 0.5 (≈ 1.24 µM) | 3.6 | 22 | – | – | – | – | – | – | – | – | – | – |
| Cc1cc(-c2cc3c(cc2F)c(=O)c2c(=O)[nH]sc2n3C2CC2)ccn1 | 0.059 (≈ 0.161 µM) | 0.004 (≈ 0.0109 µM) | 0.5 (≈ 1.36 µM) | 26 | 36 | 0.25 (≈ 0.68 µM) | 0.125 (≈ 0.34 µM) | 0.04 (≈ 0.109 µM) | 0.029 (≈ 0.0789 µM) | 0.015 (≈ 0.0408 µM) | 0.0037 (≈ 0.0101 µM) | 1 (≈ 2.72 µM) | 0.125 (≈ 0.34 µM) | 0.125 (≈ 0.34 µM) | 2 (≈ 5.44 µM) |
| O=c1[nH]sc2c1c(=O)c1cc(F)c(-c3cncc(C4CCCN4)c3)cc1n2C1CC1 (stereo not given) | 0.12 (≈ 0.284 µM) | 0.06 (≈ 0.142 µM) | 8 (≈ 18.9 µM) | 1.1 | 25 | – | – | – | – | – | – | – | – | – | – |
| O=c1[nH]sc2c1c(=O)c1cc(F)c(-c3cccnc3)cc1n2C1CC1 | 0.0035 (≈ 0.0099 µM) | 0.0071 (≈ 0.0201 µM) | 2 (≈ 5.66 µM) | 0.5 | > 100 | – | – | – | – | – | – | – | – | – | – |
| O=c1[nH]sc2c1c(=O)c1cc(F)c(-c3ccc[nH]3)cc1n2C1CC1 | 1 (≈ 2.93 µM) | 0.06 (≈ 0.176 µM) | 16 (≈ 46.9 µM) | 9.9 | 23 | – | – | – | – | – | – | – | – | – | – |
| COc1ccncc1-c1cc2c(cc1F)c(=O)c1c(=O)[nH]sc1n2C1CC1 | 0.25 (≈ 0.652 µM) | 0.023 (≈ 0.06 µM) | 4 (≈ 10.4 µM) | 10 | 50 | – | – | – | – | – | – | – | – | – | – |
| COc1ncc(-c2cc3c(cc2F)c(=O)c2c(=O)[nH]sc2n3C2CC2)cn1 | 0.13 (≈ 0.338 µM) | 0.015 (≈ 0.039 µM) | 8 (≈ 20.8 µM) | 3.3 | 43 | – | – | – | – | – | – | – | – | – | – |
| O=c1[nH]sc2c1c(=O)c1cc(F)c(-c3cncc4ccccc34)cc1n2C1CC1 | 0.48 (≈ 1.19 µM) | 0.028 (≈ 0.0694 µM) | 8 (≈ 19.8 µM) | > 38 | 51 | – | – | – | – | – | – | – | – | – | – |
| O=c1[nH]sc2c1c(=O)c1cc(F)c(-c3ccc(F)nc3)cc1n2C1CC1 | 0.03 (≈ 0.0808 µM) | 0.015 (≈ 0.0404 µM) | 2 (≈ 5.39 µM) | 12 | > 100 | 0.11 (≈ 0.296 µM) | 0.125 (≈ 0.337 µM) | 0.059 (≈ 0.159 µM) | 0.125 (≈ 0.337 µM) | 0.03 (≈ 0.0808 µM) | 0.0037 (≈ 0.00996 µM) | 1 (≈ 2.69 µM) | 0.125 (≈ 0.337 µM) | 0.125 (≈ 0.337 µM) | 0.5 (≈ 1.35 µM) |
